Test results: patent US20060069132A1, “Azolecarboxamide herbicides” (priority 2004, published 2006)

Legend:
large crabgrass = assay: Test C pre-/postemergence herbicide test; type: in vivo, Digitaria sanguinalis
In short: (§1)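 Emerged plants at the 1- to 4-leaf stage (2–18 cm), or freshly planted seeds, received test chemicals in a non-phytotoxic solvent mixture with surfactant. Response was visually scored against controls after 12 to 14 days in the greenhouse, on a 0 (no effect) to 100 (complete control) scale.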

redroot pigweed = assay: Test A pre-/postemergence herbicide test; type: in vivo, Amaranthus retroflexus
In short: (§2)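 Both application timings were run together: directed soil spray over freshly planted seeds in sandy loam, and runoff spray onto 2–10 cm seedlings. Evaluation after ~10 days in greenhouse used a 0–100 visual scale versus untreated controls.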

lambsquarters = assay: Test C pre-/postemergence herbicide test; type: in vivo, Chenopodium album
In short: as §1

Surinam grass = assay: Test C pre-/postemergence herbicide test; type: in vivo, Urochloa decumbens
In short: as §1

ducksalad = assay: Test B flooded paddy test; type: in vivo, Heteranthera limosa; settings: 1000 g ai/ha, visual rating, scale 0 to 100 (0 no effect, 100 complete control), 13 to 15 days
In short: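 Treated at 2-leaf (paddy) or 1–4-leaf, 2–18 cm (postemergence); greenhouse 13–15 d; visual score vs control, 0 none to 100 complete control; dash = not tested.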

giant foxtail = assay: Test A pre-/postemergence herbicide test; type: in vivo, Setaria faberi
In short: as §2

yellow nutsedge = assay: Test C pre-/postemergence herbicide test; type: in vivo, Cyperus esculentus
In short: as §1

barnyardgrass = assay: Test B pre-/postemergence herbicide test; type: in vivo, Echinochloa crus-galli; settings: for Barnyardgrass plant response rating: postemergence
In short: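 Herbicidal effect was judged by eye on a 0–100 scale after plants stood 13 to 15 days in the greenhouse following pre- or postemergence treatment with surfactant-containing formulations.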

common ragweed = assay: Test C pre-/postemergence herbicide test; type: in vivo, Ambrosia elatior; set-up: key to Plant response rating, Ragweed: 0 = no effect, 100 = complete control; settings: for Plant response rating (0 = no effect, 100 = complete control), Ragweed / Plant response rating, Ragweed: preemergence; for Ragweed plant response rating: Preemergence, scale 0 to 100, 0 no effect, 100 complete control
In short: as §1

[1] = 125 g ai/ha, scale 0 (no effect) to 100 (complete control), visual, 12 to 14 days, preemergence
[2] = 250 g ai/ha, scale 0 to 100 (0 no effect, 100 complete control), visual, 12 to 14 days, preemergence
[3] = Postemergence, 500 g ai/ha, scale 0 to 100
[4] = Postemergence, 250 g ai/ha, scale 0 to 100, 0 no effect, 100 complete control
[5] = Preemergence, 500 g ai/ha, scale 0 to 100, 0 no effect, 100 complete control
[6] = postemergence, 125 g ai/ha, scale 0 to 100
[7] = postemergence, 62 g ai/ha, scale 0 to 100
[8] = Postemergence, 500 g ai/ha, 0 to 100 scale, 0 no effect, 100 complete control
[9] = Postemergence, 2000 g ai/ha, 0 to 100 scale, 0 no effect, 100 complete control
[10] = Preemergence, 500 g ai/ha, visual rating, 0 to 100 scale (0 no effect, 100 complete control)
[11] = Preemergence, 2000 g ai/ha, visual rating, 0 to 100 scale (0 no effect, 100 complete control)
[12] = 500 g ai/ha, visual rating 0-100, 0 no effect, 100 complete control, preemergence
[13] = Postemergence, 500 g ai/ha, visual rating after 13 to 15 days, scale 0 (no effect) to 100 (complete control)
[14] = 125 g ai/ha, visual rating, scale 0 (no effect) to 100 (complete control)
[15] = preemergence, 125 g ai/ha, 0 to 100 scale, 0 is no effect, 100 is complete control
[16] = 125 g ai/ha, scale 0 (no effect) to 100 (complete control), visual, 12 to 14 days
[17] = 62 g ai/ha, preemergence, scale 0 to 100
[18] = 250 g ai/ha, scale 0-100, preemergence
[19] = 500 g ai/ha, scale 0 to 100 (0 no effect, 100 complete control), visual, 12 to 14 days, preemergence
[20] = preemergence, 500 g ai/ha, visual injury, 0 to 100 scale (0 no effect, 100 complete control)

CCn1nc(C(C)(C)C)cc1C(=O)Nc1cccc(C(C)=NO)c1 [Compound 108]
Plant response rating (0 = no effect, 100 = complete control), Crabgrass, Large (large crabgrass; 62 g ai/ha, preemergence): 100 | Plant response rating, Crabgrass, Large (large crabgrass; [1]): 100 | Plant response rating, Crabgrass, Large (large crabgrass; [2]): 100 | Crabgrass, Large plant response rating (large crabgrass; [3]): 100 | Plant response rating, Crabgrass, Large (large crabgrass; [4]): 70 | Crabgrass, Large plant response rating (large crabgrass; [5]): 100 | Plant response rating, Crabgrass, Large (large crabgrass; [6]): 70 | Plant response rating, Crabgrass, Large (large crabgrass; [7]): 10 | Pigweed plant response rating (redroot pigweed; [8]): 100 | Plant response rating, Pigweed (redroot pigweed; [9]): 100 | Pigweed plant response rating (redroot pigweed; [10]): 100 | Pigweed plant response rating (redroot pigweed; [11]): 100 | Plant response rating (0 = no effect, 100 = complete control), Lambsquarters (lambsquarters; 62 g ai/ha, preemergence): 100 | Plant response rating, Lambsquarters (lambsquarters; [1]): 100 | Lambsquarters plant response rating (lambsquarters; [3]): 100 | Plant response rating, Lambsquarters (lambsquarters; [4]): 100 | Lambsquarters plant response rating (lambsquarters; [5]): 100 | Plant response rating, Lambsquarters (lambsquarters; [6]): 100 | Plant response rating, Lambsquarters (lambsquarters; [7]): 70 | Plant response rating (0 = no effect, 100 = complete control), Surinam Grass (Surinam grass; 62 g ai/ha, preemergence): 30 | Plant response rating, Surinam Grass (Surinam grass; [1]): 40 | Surinam Grass plant response rating (Surinam grass; [3]): 50 | Plant response rating, Surinam Grass (Surinam grass; [4]): 40 | Surinam Grass plant response rating (Surinam grass; [5]): 90 | Plant response rating, Surinam Grass (Surinam grass; [6]): 40 | Plant response rating, Surinam Grass (Surinam grass; [7]): 20 | Ducksalad plant response rating (ducksalad): 90 | Foxtail, Giant plant response rating (giant foxtail; [8]): 90 | Plant response rating, Foxtail, Giant (giant foxtail; [9]): 100 | Foxtail, Giant plant response rating (giant foxtail; [10]): 95 | Foxtail, Giant plant response rating (giant foxtail; [11]): 100 | Plant response rating (0 = no effect, 100 = complete control), Nutsedge, Yellow (yellow nutsedge; 62 g ai/ha, preemergence): 50 | Plant response rating, Nutsedge, Yellow (yellow nutsedge; [1]): 70 | Nutsedge, Yellow plant response rating (yellow nutsedge; [3]): 30 | Plant response rating, Nutsedge, Yellow (yellow nutsedge; [4]): 30 | Nutsedge, Yellow plant response rating (yellow nutsedge; [5]): 80 | Plant response rating, Nutsedge, Yellow (yellow nutsedge; [6]): 30 | Plant response rating, Nutsedge, Yellow (yellow nutsedge; [7]): 20 | Plant response rating, Barnyardgrass (barnyardgrass; [12]): 90 | Plant response rating, Barnyardgrass (barnyardgrass; [13]): 70 | Barnyardgrass plant response rating (barnyardgrass; [14]): 10 | Plant response rating, Barnyardgrass (barnyardgrass; [15]): 80 | Plant response rating (0 = no effect, 100 = complete control), Ragweed (common ragweed; 62 g ai/ha): 20 | Plant response rating, Ragweed (common ragweed; [16]): 20 | Ragweed plant response rating (common ragweed; 500 g ai/ha): 90

CC(=NO)c1cccc(NC(=O)c2cc(C(C)(C)C)nn2C)c1 [Compound 102]
Plant response rating (0 = no effect, 100 = complete control), Crabgrass, Large (large crabgrass; 62 g ai/ha, preemergence): 100 | Plant response rating, Crabgrass, Large (large crabgrass; [1]): 100 | Plant response rating, Crabgrass, Large (large crabgrass; [2]): 100 | Crabgrass, Large plant response rating (large crabgrass; [5]): 100 | Pigweed plant response rating (redroot pigweed; [8]): 95 | Plant response rating, Pigweed (redroot pigweed; [9]): 100 | Pigweed plant response rating (redroot pigweed; [10]): 80 | Pigweed plant response rating (redroot pigweed; [11]): 90 | Plant response rating (0 = no effect, 100 = complete control), Lambsquarters (lambsquarters; 62 g ai/ha, preemergence): 0 | Plant response rating, Lambsquarters (lambsquarters; [1]): 70 | Lambsquarters plant response rating (lambsquarters; [5]): 100 | Plant response rating (0 = no effect, 100 = complete control), Surinam Grass (Surinam grass; 62 g ai/ha, preemergence): 0 | Surinam Grass plant response rating (Surinam grass; [5]): 50 | Ducksalad plant response rating (ducksalad): 90 | Foxtail, Giant plant response rating (giant foxtail; [8]): 45 | Plant response rating, Foxtail, Giant (giant foxtail; [9]): 65 | Foxtail, Giant plant response rating (giant foxtail; [10]): 60 | Foxtail, Giant plant response rating (giant foxtail; [11]): 85 | Plant response rating (0 = no effect, 100 = complete control), Nutsedge, Yellow (yellow nutsedge; 62 g ai/ha, preemergence): 0 | Plant response rating, Nutsedge, Yellow (yellow nutsedge; [1]): 0 | Nutsedge, Yellow plant response rating (yellow nutsedge; [5]): 30 | Plant response rating, Barnyardgrass (barnyardgrass; [12]): 90 | Plant response rating, Barnyardgrass (barnyardgrass; [13]): 40 | Barnyardgrass plant response rating (barnyardgrass; [14]): 0 | Plant response rating, Barnyardgrass (barnyardgrass; [15]): 80 | Plant response rating (0 = no effect, 100 = complete control), Ragweed (common ragweed; 62 g ai/ha): 10 | Plant response rating, Ragweed (common ragweed; [16]): 20 | Ragweed plant response rating (common ragweed; 500 g ai/ha): 100

CCc1nc(C(C)(C)C)sc1C(=O)Nc1cccc(C(=O)NCC2CC2)n1 [Compound 215]
Plant response rating, Crabgrass, Large (large crabgrass; [17]): 0 | Plant response rating, Crabgrass, Large (large crabgrass; [1]): 70 | Plant response rating, Crabgrass, Large (large crabgrass; [18]): 85 | Plant response rating, Crabgrass, Large (large crabgrass; [19]): 100 | Pigweed plant response rating (redroot pigweed; [8]): 70 | Plant response rating, Pigweed (redroot pigweed; [9]): 80 | Pigweed plant response rating (redroot pigweed; [11]): 85 | Pigweed plant response rating (redroot pigweed; [20]): 30 | Plant response rating, Lambsquarters (lambsquarters; [17]): 100 | Plant response rating, Lambsquarters (lambsquarters; [1]): 100 | Plant response rating, Lambsquarters (lambsquarters; [18]): 100 | Plant response rating, Lambsquarters (lambsquarters; [19]): 100 | Plant response rating, Surinam Grass (Surinam grass; [17]): 0 | Plant response rating, Surinam Grass (Surinam grass; [18]): 30 | Plant response rating, Surinam Grass (Surinam grass; [19]): 50 | Ducksalad plant response rating (ducksalad): 90 | Foxtail, Giant plant response rating (giant foxtail; [8]): 25 | Plant response rating, Foxtail, Giant (giant foxtail; [9]): 40 | Foxtail, Giant plant response rating (giant foxtail; [11]): 75 | Foxtail, Giant plant response rating (giant foxtail; [20]): 50 | Plant response rating, Nutsedge, Yellow (yellow nutsedge; [17]): 0 | Plant response rating, Nutsedge, Yellow (yellow nutsedge; [1]): 0 | Plant response rating, Nutsedge, Yellow (yellow nutsedge; [18]): 0 | Plant response rating, Nutsedge, Yellow (yellow nutsedge; [19]): 0 | Barnyardgrass plant response rating (0 to 100 scale) (barnyardgrass; 125 g ai/ha, 0 = no effect, 100 = complete control, preemergence): 10 | Plant response rating, Barnyardgrass (barnyardgrass; 500 g ai/ha, visual rating, 0 = no effect, 100 = complete control, preemergence): 60 | Barnyardgrass plant response rating (barnyardgrass; [14]): 0 | Barnyardgrass plant response rating (barnyardgrass; 500 g ai/ha, visual rating, scale 0 (no effect) to 100 (complete control)): 20 | Plant response rating, Ragweed (common ragweed; 62 g ai/ha, scale 0 to 100): 0 | Plant response rating, Ragweed (common ragweed; 250 g ai/ha, scale 0-100): 100 | Plant response rating, Ragweed (common ragweed; 500 g ai/ha, scale 0 to 100 (0 no effect, 100 complete control), visual, 12 to 14 days): 100
